Data reported in patent US9637491B2, “Pyrazolo[4,3-D]pyrimidines as kinase inhibitors” (Origenis GmbH, priority 2012, dated 2017).

These compounds were tested against T1, SYK kinase (Homo sapiens, UniProt P43405) (assay: SYK assay (OMNIA Kinase Assay, Invitrogen)). Conditions: SYK Activities; 1 mM ATP, 10 μM Omnia Peptide Substrate Tyr 7, 30° C.
T1 construct: purchased Invitrogen, Carlsbad
Type: biochemical
Outline: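 Continuous-read fluorescence kinase assay: SOX-labelled Tyr 7 peptide (10 μM) with 1 mM ATP and 0.2 mM DTT, 30° C, reaction started by adding SYK. Fluorescence (ex 360/em 485 nm) read every 30 s for 30 min. IC50 from sigmoidal fit of reaction velocity versus inhibitor concentration.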

Row | IC50 [nM] | SMILES
1 | < 10 | c1cc(N2CCOCC2)ccc1Nc1nc(C2CCC2)nc2cn[nH]c12 [Example 120, 5-cyclobutyl-N-(4-morpholinophenyl)-1H-pyrazolo[4,3-d]pyrimidin-7-amine]
2 | < 10 | O=C1COc2ccc(Nc3nc(-c4ccc5cn[nH]c5c4)nc4cn[nH]c34)cc2N1 [Example 519, 6-((5-(1H-indazol-6-yl)-1H-pyrazolo[4,3-d]pyrimidin-7-yl)amino)-2H-benzo[b][1,4]oxazin-3(4H)-one]
3 | 100 to 1000 | c1cc(N2CCNCC2)ccc1Nc1nc(C2CC2)nc2cn[nH]c12 [Example 55, 5-cyclopropyl-N-(4-(piperazin-1-yl)phenyl)-1H-pyrazolo[4,3-d]pyrimidin-7-amine]
4 | 10 to 100 | CC1CC1c1nc(Nc2ccc(N3CCOCC3)cc2)c2[nH]ncc2n1 (stereo not shown) [Example 101, 5-(2-methylcyclopropyl)-N-(4-morpholinophenyl)-1H-pyrazolo[4,3-d]pyrimidin-7-amine]
5 | 100 to 1000 | OCCn1cc(Nc2nc(-c3nc4ccccc4o3)nc3cn[nH]c23)cn1 [Example 444, 2-(4-((5-(benzo[d]oxazol-2-yl)-1H-pyrazolo[4,3-d]pyrimidin-7-yl)amino)-1H-pyrazol-1-yl)ethan-1-ol]
6 | < 10 | CC(=O)N1CCN(c2ccc(Nc3nc(-c4ccc5cn[nH]c5c4)nc4cn[nH]c34)cc2)CC1 [Example 50, 1-(4-(4-((5-(1H-indazol-6-yl)-1H-pyrazolo[4,3-d]pyrimidin-7-yl)amino)phenyl)piperazin-1-yl)ethan-1-one]
7 | 100 to 1000 | CN1CCC(n2cc(Nc3nc(-c4cocn4)nc4cn[nH]c34)cn2)CC1 [Example 129, N-(1-(1-methylpiperidin-4-yl)-1H-pyrazol-4-yl)-5-(oxazol-4-yl)-1H-pyrazolo[4,3-d]pyrimidin-7-amine]
8 | 100 to 1000 | CC(=O)N1CCC(n2cc(Nc3nc(-c4cocn4)nc4cn[nH]c34)cn2)CC1 [Example 130, 1-(4-(4-((5-(oxazol-4-yl)-1H-pyrazolo[4,3-d]pyrimidin-7-yl)amino)-1H-pyrazol-1-yl)piperidin-1-yl)ethan-1-one]
9 | 100 to 1000 | CC(C)n1ncc(Nc2nc(C3CC3)nc3cn[nH]c23)c1Cl [Example 297, N-(5-chloro-1-isopropyl-1H-pyrazol-4-yl)-5-cyclopropyl-1H-pyrazolo[4,3-d]pyrimidin-7-amine]
10 | 100 to 1000 | CC(C)Cn1cc(Nc2nc(C(C)(C)C)nc3cn[nH]c23)cn1 [Example 268, 5-(tert-butyl)-N-(1-isobutyl-1H-pyrazol-4-yl)-1H-pyrazolo[4,3-d]pyrimidin-7-amine]
11 | 100 to 1000 | CC(=O)N1CCN(c2ccc(Nc3nc(-c4ccon4)nc4cn[nH]c34)cc2)CC1 [Example 72, 1-(4-(4-((5-(isoxazol-3-yl)-1H-pyrazolo[4,3-d]pyrimidin-7-yl)amino)phenyl)piperazin-1-yl)ethan-1-one]
12 | 10 to 100 | O=C1CCCc2ccc(Nc3nc(-c4ccc5cn[nH]c5c4)nc4cn[nH]c34)cc2N1 [Example 516, 8-((5-(1H-indazol-6-yl)-1H-pyrazolo[4,3-d]pyrimidin-7-yl)amino)-4,5-dihydro-1H-benzo[b]azepin-2(3H)-one]
13 | 10 to 100 | CC(C)C(C)n1cc(Nc2nc(C3CC3)nc3cn[nH]c23)cn1 (stereo not shown) [Example 498, 5-cyclopropyl-N-(1-(3-methylbutan-2-yl)-1H-pyrazol-4-yl)-1H-pyrazolo[4,3-d]pyrimidin-7-amine]
14 | 100 to 1000 | N#CC1(n2cc(Nc3nc(-c4ccco4)nc4cn[nH]c34)cn2)CCCCC1 [Example 213, 1-(4-((5-(furan-2-yl)-1H-pyrazolo[4,3-d]pyrimidin-7-yl)amino)-1H-pyrazol-1-yl)cyclohexanecarbonitrile]
15 | 100 to 1000 | COc1ccc(Nc2nc(-c3ccoc3)nc3cn[nH]c23)cc1OC [Example 95, N-(3,4-dimethoxyphenyl)-5-(furan-3-yl)-1H-pyrazolo[4,3-d]pyrimidin-7-amine]
16 | < 10 | CC(C)(C)N1CCC(n2cc(Nc3nc(-c4ccc5cn[nH]c5c4)nc4cn[nH]c34)cn2)CC1 [Example 468, N-(1-(1-(tert-butyl)piperidin-4-yl)-1H-pyrazol-4-yl)-5-(1H-indazol-6-yl)-1H-pyrazolo[4,3-d]pyrimidin-7-amine]
17 | 100 to 1000 | O=S1(=O)CCc2ccc(Nc3nc(-c4cccs4)nc4cn[nH]c34)cc21 [Example 17, 6-((5-(thiophen-2-yl)-1H-pyrazolo[4,3-d]pyrimidin-7-yl)amino)-2,3-dihydrobenzo[b]thiophene 1,1-dioxide]
18 | 100 to 1000 | Cn1ccc(-c2nc(Nc3ccc(N4CCOCC4)cc3)c3[nH]ncc3n2)n1 [Example 175, 5-(1-methyl-1H-pyrazol-3-yl)-N-(4-morpholinophenyl)-1H-pyrazolo[4,3-d]pyrimidin-7-amine]
19 | < 10 | c1nn(C2CCOCC2)cc1Nc1nc(-c2ccc3cn[nH]c3c2)nc2cn[nH]c12 [Example 134, 5-(1H-indazol-6-yl)-N-(1-(tetrahydro-2H-pyran-4-yl)-1H-pyrazol-4-yl)-1H-pyrazolo[4,3-d]pyrimidin-7-amine]
20 | < 10 | c1cc(-c2nc(Nc3cnn(C4CCOCC4)c3)c3[nH]ncc3n2)co1 [Example 146, 5-(furan-3-yl)-N-(1-(tetrahydro-2H-pyran-4-yl)-1H-pyrazol-4-yl)-1H-pyrazolo[4,3-d]pyrimidin-7-amine]
21 | 100 to 1000 | c1cc(N2CCOCC2)ccc1Nc1nc(C2COCCO2)nc2cn[nH]c12 (stereo not shown) [Example 84, 5-(1,4-dioxan-2-yl)-N-(4-morpholinophenyl)-1H-pyrazolo[4,3-d]pyrimidin-7-amine]
22 | < 10 | CC(C)(C)N1CCN(c2ccc(Nc3nc(-c4ccco4)nc4cn[nH]c34)cc2)CC1 [Example 112, N-(4-(4-(tert-butyl)piperazin-1-yl)phenyl)-5-(furan-2-yl)-1H-pyrazolo[4,3-d]pyrimidin-7-amine]
23 | 100 to 1000 | CC(C)(C#N)n1cc(Nc2nc(-c3ccco3)nc3cn[nH]c23)cn1 [Example 211, 2-(4-((5-(furan-2-yl)-1H-pyrazolo[4,3-d]pyrimidin-7-yl)amino)-1H-pyrazol-1-yl)-2-methylpropanenitrile]
24 | 10 to 100 | N#Cc1cc(Nc2nc(-c3c(F)cccc3F)nc3cn[nH]c23)ccc1N1CCOCC1 [Example 502, 5-((5-(2,6-difluorophenyl)-1H-pyrazolo[4,3-d]pyrimidin-7-yl)amino)-2-morpholinobenzonitrile]
25 | 100 to 1000 | CC(C)(C#N)n1cc(Nc2nc(C3CCC3)nc3cn[nH]c23)cn1 [Example 225, 2-(4-((5-cyclobutyl-1H-pyrazolo[4,3-d]pyrimidin-7-yl)amino)-1H-pyrazol-1-yl)-2-methylpropanenitrile]
26 | 100 to 1000 | CC(C)n1cc(Nc2nc(-c3ncco3)nc3cn[nH]c23)cn1 [Example 250, N-(1-isopropyl-1H-pyrazol-4-yl)-5-(oxazol-2-yl)-1H-pyrazolo[4,3-d]pyrimidin-7-amine]
27 | 10 to 100 | Fc1cccc(F)c1-c1nc(Nc2ccc3c(c2)NCCO3)c2[nH]ncc2n1 [Example 537, N-(5-(2,6-difluorophenyl)-1H-pyrazolo[4,3-d]pyrimidin-7-yl)-3,4-dihydro-2H-benzo[b][1,4]oxazin-6-amine]
28 | 10 to 100 | CC(C)n1cc(Nc2nc(-c3cccs3)nc3cn[nH]c23)cn1 [Example 431, N-(1-isopropyl-1H-pyrazol-4-yl)-5-(thiophen-2-yl)-1H-pyrazolo[4,3-d]pyrimidin-7-amine]
